The values below come from PubChem BioAssay (NCI).

Some test systems named below: SF-295 CNS; IGROV1 ovarian; NCI-H460 lung; KM12 colon; HOP-62 NSCLC; MOLT-4 leukemia; TK-10 renal; SNB-75 CNS; SF-268 CNS.
Assay in all cases: NCI tumour cell line growth inhibition, 48 h

SMILES strings stand for the structures.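 Interpolation was linear, between the two tested concentrations surrounding the appropriate level; five concentrations were tested over 48 hours in 96-well plates. Here, GI50 denotes the concentration required for 50% inhibition of growth. TGI: total growth inhibition.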 Where only a bound is given, the exact number is not on record here.

Regarding `CCOC(=O)NC1CC2CCC1(OC)C=C2C` (stereo unspecified), the TGI in the test with SF-295 CNS, with IGROV1 ovarian, in the test on NCI-H460 lung, in the test with KM12 colon, in the test on HOP-62 NSCLC and with MOLT-4 leukemia was above 100 µM throughout. In addition, the TGI in the test with TK-10 renal, in the test on SNB-75 CNS and with SF-268 CNS was above 100 µM throughout.
As for `CCCN1C(=O)CNC(=O)c2[nH]cnc21`, the TGI in the test with SF-295 CNS, in the test on IGROV1 ovarian, in the test on NCI-H460 lung, in the test with KM12 colon, in the test on HOP-62 NSCLC and in the test on MOLT-4 leukemia was above 100 µM each time. Also, the TGI in the test with TK-10 renal, in the test on SNB-75 CNS and with SF-268 CNS was above 100 µM in each case.
Take `O=C(O)[C@@H](NS(=O)(=O)c1ccc([N+](=O)[O-])cc1)c1ccccc1`: the TGI in the test on SF-295 CNS, in the test on IGROV1 ovarian, with NCI-H460 lung, in the test on KM12 colon, with MOLT-4 leukemia and with TK-10 renal was above 100 µM each time. Moreover, the TGI in the test on SNB-75 CNS and with SF-268 CNS was above 100 µM in each case.
Turning to `C=C[C@H]1C=Cc2c(OC)cccc2[C@@H]1COP1(=S)NC(C)C(c2ccccc2)O1` (stereo partly specified), the TGI with SF-295 CNS, in the test on IGROV1 ovarian, with NCI-H460 lung, with KM12 colon, in the test with HOP-62 NSCLC and with MOLT-4 leukemia was above 100 µM throughout. Further, the TGI in the test with TK-10 renal, with SNB-75 CNS and in the test with SF-268 CNS was above 100 µM throughout.
Consider `O=C(C=Nc1ccccc1C(=O)[O-])c1cccs1.O=C(C=Nc1ccccc1C(=O)[O-])c1cccs1.[Zn+2]`, for which the TGI was 42.1 µM in the test on SF-295 CNS; 76 µM with IGROV1 ovarian; above 100 µM with NCI-H460 lung; above 100 µM in the test with KM12 colon; above 100 µM in the test on HOP-62 NSCLC; above 100 µM in the test with MOLT-4 leukemia. The TGI is above 100 µM in the test with TK-10 renal, 35.3 µM in the test with SNB-75 CNS and 79.8 µM in the test with SF-268 CNS.
In the case of `CC(C)c1cccc(C(C)C)c1NC(=O)CCC(=O)NN`, the TGI in the test on SF-295 CNS, with IGROV1 ovarian, in the test with NCI-H460 lung, in the test on KM12 colon, in the test on HOP-62 NSCLC and in the test with MOLT-4 leukemia was above 100 µM each time. The TGI in the test with TK-10 renal, with SNB-75 CNS and in the test with SF-268 CNS was above 100 µM each time.
Regarding `Nc1nc(=Nc2ccccc2)ss1`, the TGI in the test on SF-295 CNS, with IGROV1 ovarian, in the test with NCI-H460 lung, with KM12 colon, with HOP-62 NSCLC and in the test with MOLT-4 leukemia was above 100 µM throughout. Besides, the TGI in the test with TK-10 renal, with SNB-75 CNS and in the test on SF-268 CNS was above 100 µM each time.
`FC(F)(F)c1cccc(C2SCc3nc4ccccc4n32)c1` (stereo unspecified): the TGI with SF-295 CNS, in the test on IGROV1 ovarian, in the test with KM12 colon, in the test on MOLT-4 leukemia, in the test on TK-10 renal and in the test on SNB-75 CNS was above 100 µM in each case. The TGI in the test on SF-268 CNS is above 100 µM.
As for `O=C(Cc1ccccc1)NS(=O)(=O)c1ccccc1`, the TGI in the test with SF-295 CNS, in the test with IGROV1 ovarian, in the test on NCI-H460 lung, in the test with KM12 colon, with HOP-62 NSCLC and in the test with MOLT-4 leukemia was above 100 µM throughout. Also, the TGI with TK-10 renal, in the test on SNB-75 CNS and with SF-268 CNS was above 100 µM in each case.
With `CCOC(=O)c1cc(OC(=O)CC)c2c(OC)ccc(OC)c2c1`, the TGI is above 100 µM in the test with IGROV1 ovarian; above 100 µM in the test on NCI-H460 lung; above 100 µM in the test on KM12 colon; above 100 µM in the test with MOLT-4 leukemia; above 100 µM in the test with TK-10 renal; 99 µM with SNB-75 CNS.
As to `COc1ccccc1NC(=O)C(CC(C(=O)Nc1ccccc1OC)/C(C)=N/NC(=O)c1ccccc1O)/C(C)=N/NC(=O)c1ccccc1O` (stereo unspecified), the TGI in the test with SF-295 CNS, in the test with IGROV1 ovarian, with NCI-H460 lung, with KM12 colon, with HOP-62 NSCLC and with MOLT-4 leukemia was above 100 µM each time. Besides, the TGI with TK-10 renal, with SNB-75 CNS and with SF-268 CNS was above 100 µM each time.
Consider `FC(F)(F)c1nc(-c2ccccc2)oc1Sc1oc(-c2ccccc2)nc1C(F)(F)F`, for which the TGI in the test on SF-295 CNS, in the test on IGROV1 ovarian, in the test on NCI-H460 lung, in the test on KM12 colon, in the test on HOP-62 NSCLC and in the test with MOLT-4 leukemia was above 100 µM each time. In addition, the TGI in the test on TK-10 renal, with SNB-75 CNS and in the test on SF-268 CNS was above 100 µM in each case.
`Cc1ccc(N2C(=O)C(Cl)=C(Cl)C2=O)cc1`: the TGI in the test on SF-295 CNS was above 100 µM; with IGROV1 ovarian, 43.4 µM; in the test with NCI-H460 lung it was above 100 µM; in the test with KM12 colon it was 45.2 µM; with HOP-62 NSCLC it was above 100 µM; with MOLT-4 leukemia, 46.5 µM. For the same compound, the TGI in the test on SNB-75 CNS was 48.5 µM; in the test with SF-268 CNS it was 37.8 µM.
As to `Cn1nc2ccccc2cc1=O`, the TGI in the test on SF-295 CNS, in the test with IGROV1 ovarian, with NCI-H460 lung, with KM12 colon, in the test with HOP-62 NSCLC and with TK-10 renal was above 100 µM throughout. Besides, the TGI in the test on SNB-75 CNS and in the test with SF-268 CNS was above 100 µM each time.
On to `C[CH2][Sn]([CH2]C)([O]C(=O)c1ccc(F)cc1)[O][Sn]([CH2]C)([CH2]C)[O]C(=O)c1ccc(F)cc1`, for which the GI50 in the test on SF-295 CNS is above 100 µM; in the test with IGROV1 ovarian, above 100 µM; in the test with NCI-H460 lung, above 100 µM; with KM12 colon it was above 100 µM; in the test on HOP-62 NSCLC, above 100 µM; with MOLT-4 leukemia it was 47.1 µM. Besides, the GI50 is 23.5 µM in the test with TK-10 renal, 58.5 µM with SNB-75 CNS and 67.4 µM in the test with SF-268 CNS. The TGI in the test with SF-295 CNS, with IGROV1 ovarian, in the test with NCI-H460 lung, in the test on KM12 colon, with HOP-62 NSCLC and in the test on MOLT-4 leukemia was above 100 µM throughout. For the same compound, the TGI was 62.3 µM in the test on TK-10 renal, above 100 µM in the test with SNB-75 CNS and above 100 µM in the test with SF-268 CNS.
